Experimental data from PubChem BioAssay AID1645865 (Buhrlage Lab, Dana-Farber Cancer Institute and Novartis …, 2021).
Calls of active or inactive are those of the source.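 How the source made its calls: active means maximal inhibition of the USP30 enzyme reaching 30% or more across the dose series; inactive means the rest.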

Molecular target: Ubiquitin carboxyl-terminal hydrolase 30 (Homo sapiens) (UniProt Q70CQ3)
Test: ubiquitin-specific protease 30 DUB inhibitors, concentration-effect, biochemical, validation of primary actives (AID 1645865)
Settings: purified USP30, Ub-rhodamine cleavage, fluorescence, 2 h

Chain of Ubiquitin carboxyl-terminal hydrolase 30 (Homo sapiens) (Q70CQ3 whole entry, looked up): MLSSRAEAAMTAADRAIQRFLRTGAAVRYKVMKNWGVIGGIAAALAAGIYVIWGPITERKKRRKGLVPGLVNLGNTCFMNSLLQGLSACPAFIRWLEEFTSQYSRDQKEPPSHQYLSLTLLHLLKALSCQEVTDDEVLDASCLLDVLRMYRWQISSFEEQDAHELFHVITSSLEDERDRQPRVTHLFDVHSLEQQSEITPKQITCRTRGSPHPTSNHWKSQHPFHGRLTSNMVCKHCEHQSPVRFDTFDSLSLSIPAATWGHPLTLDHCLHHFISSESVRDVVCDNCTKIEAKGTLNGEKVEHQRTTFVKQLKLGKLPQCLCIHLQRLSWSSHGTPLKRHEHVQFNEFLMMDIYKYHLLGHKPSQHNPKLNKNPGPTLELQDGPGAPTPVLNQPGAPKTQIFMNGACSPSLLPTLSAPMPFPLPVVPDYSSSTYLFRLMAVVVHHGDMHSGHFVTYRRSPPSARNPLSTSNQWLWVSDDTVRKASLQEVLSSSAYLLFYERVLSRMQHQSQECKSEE

Compound | IC50
CCOc1ccc(-n2c(C)cc(/C=C(\C#N)c3nc4ccccc4[nH]3)c2C)cc1 | > 50 µM (inactive)
Cc1cc(Cl)ccc1Nc1nc(Nc2cccc(F)c2)nc2nccnc12 | > 50 µM (inactive)
Cc1nc(-c2ccc(-n3cc(C(=O)Nc4cccc(F)c4)c(C)n3)cc2)no1 | 47.7 µM
CCOc1ccc(NC(=O)Cn2c(=O)n(CC(=O)NCc3ccc(C)cc3)c(=O)c3sccc32)cc1 | 0.465 µM
O=C(COc1ccc2oc3c(c2c1)CCCC3)Nc1ccccn1 | 30.6 µM
Cc1ccc(Nc2nc(NCCc3ccccc3)nc3c2cnn3C)cc1 | 29.2 µM
O=C(/C=C/c1c(F)cccc1Cl)N1CCc2ccccc2C1 | > 50 µM (inactive)
C[C@]12C(=O)N(c3ccc(C(=O)NCc4ccc(F)cc4)cc3)C(=O)N1CCc1c2[nH]c2ccccc12 | 35.8 µM
NS(=O)(=O)c1ccc(NS(=O)(=O)c2ccc(NC(=O)Nc3ccc(Cl)cc3)cc2)cc1 | 29.4 µM
Cc1cc(NC(=O)Cn2c(=O)n(CCCCC(=O)NCc3ccco3)c(=O)c3ccccc32)ccc1Br | 2.09 µM
COc1ccc(OC)c(NC(=O)C2=C(C)Nc3ncnn3C2c2ccccc2OCc2ccc(C)cc2)c1 (centres undefined) | 17.5 µM
O=C(Nc1ccc(Cl)cc1F)c1cc(-c2ccccn2)n[nH]1 | 0.445 µM
Cc1nc2cc(NC(=O)C3CN(C(=O)c4cnccn4)C3)ccc2s1 | > 50 µM (inactive)
c1ccc(Cc2nn3c(-c4cccnc4)nnc3c3ccccc23)cc1 | 0.654 µM
COCCCn1c(C(=O)NCCc2ccccc2)cc2c(=O)n3cccc(C)c3nc21 | 34.7 µM
Cc1cc(C(=O)N2CC(C(=O)Nc3cc(C(F)(F)F)ccc3Cl)C2)no1 | 29.3 µM
Cc1ccc(-n2nc(C(=O)Nc3ccc(C)cn3)c3ncn(C)c(=O)c32)cc1 | 1.82 µM
O=C(Cc1noc2ccccc12)N1CCN(c2ccc([N+](=O)[O-])cc2)CC1 | > 50 µM (inactive)
Cc1ccccc1NC(=O)c1ccc(N2CCCCC2)nn1 | > 50 µM (inactive)
COc1ccc(C2C(C(=O)C(C)(C)C)N3c4ccccc4C=CC3C23C(=O)c2ccccc2C3=O)c(OC)c1 (centres undefined) | > 50 µM (inactive)
COc1ccc(-c2cnnn2-c2ccc(NC(=O)c3c(F)cccc3F)cc2)cc1OC | > 50 µM (inactive)
Nc1ccc(NC(=O)c2cc3c(s2)CCC3)cc1[N+](=O)[O-] | 16.5 µM
O=C1c2c(O)cccc2C2(Oc3cccc4cccc(c34)O2)C2OC12 (centres undefined) | 31.8 µM
O=C(NCc1ccc2c(c1)OCO2)c1cc(-c2cc(Cl)ccc2O)n[nH]1 | 2.82 µM

Compound | IC50
O=C(O)Cc1ccc(Nc2nc3ccccc3n3nnnc23)cc1 | > 50 µM (inactive)
CCc1ccc(NC(=O)CN=C2NS(=O)(=O)C(c3ccc(CC)cc3)=C2C)cc1 | 4.67 µM
CCN(CC)C(=O)c1sc(NC(=O)/C=C/c2c(F)cccc2Cl)c(C#N)c1C | 1.89 µM
NC(=O)c1nnn(-c2ccc(NC(=O)c3ccc(F)c(F)c3)cc2)n1 | 15 µM
CCOC(=O)[C@@H]1[C@@H](c2ccccc2)CN2CCN(C(=O)c3cnccn3)C[C@H]12 | > 50 µM (inactive)
Cn1c(COc2ccccc2)nnc1SCC(=O)Nc1ccc(N2CCOCC2)cc1 | 20 µM
O=C(Nc1ccc2c(c1)OCCO2)c1cc(CN2CCOCC2)on1 | > 50 µM (inactive)
Cc1ccc(Cn2cc(-c3noc(-c4ccncc4)n3)nn2)cc1 | 27.6 µM
CSc1nc2ncn(CC(=O)Nc3cccc(Cl)c3)c(=O)c2s1 | 4.75 µM
Cc1c(C)n(-c2ccccc2)c2ncn(CC(=O)N(C)Cc3ccccc3)c(=O)c12 | > 50 µM (inactive)
CSc1ncccc1C(=O)NC1(O)C(=O)c2ccccc2C1=O | 29.5 µM
COCCn1ccc2nc(C)c(C(=O)Nc3ccc4c(c3)OCCO4)cc2c1=O | 45.2 µM
CCN1C(=O)COc2ccc(NC(=O)c3ccc(OCc4nonc4C)cc3)cc21 | 29.6 µM
CCCCCCCc1cc(O)cc(O)c1 | 38.9 µM
CCOc1ccc2c(c1)c(=O)c(C(=O)c1ccc(C)cc1)cn2CC(=O)Nc1ccc(OC)c(OC)c1 | 0.732 µM
CC(C(=O)NCCc1ccccc1)n1nc(-c2ccccc2)c2cc(Cl)ccc21 (centres undefined) | 25.4 µM
CCCc1nc2sc3c(NCc4ccco4)ncnc3c2c2c1CCC2 | > 50 µM (inactive)
O=C(COc1ccc(Cl)cc1)N1CCc2cc3ccccc3nc21 | 1.91 µM
COc1ccc(-c2ccnc(-c3ccc(OCc4cccc(F)c4)cc3)n2)cc1 | 38.2 µM
O=C(COC(=O)C1CCCN1C(=O)C12CC3CC(CC(C3)C1)C2)c1ccc(Cl)cc1 (centres undefined) | 6.49 µM
COc1ccc(-c2cc3nc([C@H](C)NC(=O)Cc4cccc(F)c4)nn3cn2)cc1 | 3.92 µM
COc1ccc(-c2nc(Cn3nnc(C(=O)Nc4ccc(C)cc4C)c3N)c(C)o2)cc1 | > 5 µM (inactive)
COc1ccc(CCNC(=O)CCn2c(=O)c3ccccc3n(Cc3ccc(C)cc3)c2=O)cc1OC | 25.4 µM
Cc1oc(C2CC2)cc1C(=O)N1CCC2(CC1)CC1(CO2)Nc2ccccc2-n2cccc21 (centres undefined) | > 50 µM (inactive)

Compound | IC50
Fc1cc(F)c2[nH]cc(-c3nnnn3-c3ccc4ccccc4c3)c2c1 | 7.66 µM
CCC(C)Oc1cccc(C(=O)Nc2ccc(CN3CCOCC3)cc2)c1 (centres undefined) | > 50 µM (inactive)
COc1ccc(CNC(=O)CCc2nnc3n(Cc4ccccc4Cl)c(=O)c4ccccc4n23)cc1 | 2.65 µM
Cc1cc(Nc2ccc(C(=O)NCc3ccco3)cc2)n2nc(-c3cccnc3)nc2n1 | > 50 µM (inactive)
COc1ccccc1-c1nc2c3c(C)c(C)n(-c4ccc(Br)cn4)c3ncn2n1 | 0.887 µM
CCc1nc(SCC(=O)Nc2ccccc2Cl)c2oc3ccccc3c2n1 | < 0.05 µM
COc1cc(Cl)ccc1C(=O)Nc1cccc(-n2cnnn2)c1C | 10.2 µM
CC1CCN(c2nc(F)c3c(c2F)S(=O)(=O)CCN3Cc2cccnc2)CC1 | > 50 µM (inactive)
CN=C(N)NCCC/C=C/CCCC(C)CC(C)C1OC(=O)/C=C/C(C)C(O)CC(O)C(C)C(O)CCC(C)C(O)CC2(O)OC(CC(OC(=O)CC(=O)O)CC(O)CC(O)C(C)C(O)/C=C/C1C)CC(O)C2O (centres undefined) | 27.5 µM
Cc1nc(C(=O)Nc2cccc(Cl)c2Cl)nn1-c1cc(Cl)cc(Cl)c1 | 0.0981 µM
COc1ccc(NC(=O)CSc2oc(-c3ccc(C)cc3)nc2S(=O)(=O)c2ccc(Br)cc2)c(OC)c1 | > 50 µM (inactive)
COC(=O)c1cc2c(ccn2C)n1CC(=O)NC1CC1 | > 50 µM (inactive)
CCCC(=O)N1CCC2(CC1)Nc1ccccc1NC2=O | > 50 µM (inactive)
O=C(c1cnccn1)N1CCc2[nH]c3ccc(F)cc3c2C1 | > 50 µM (inactive)
COc1ccc(/C=C/C(=O)Nc2c3c(nc4c2CCC4)CCCC3)cc1 | 18.5 µM
CC(C)N(C(=O)Cn1c(=O)[nH]c2ccccc21)c1ccccc1 | > 50 µM (inactive)
Cc1cc(=O)n2c3c(c4c(cc13)c(CO)cc(=O)n4C)OC2 | > 5 µM (inactive)
COc1ccccc1C(=O)N1CCc2[nH]c3ccc(F)cc3c2C1 | > 50 µM (inactive)
Cc1ccc(C)c(-n2c(C)cc(/C=C3/C(=N)N4C(c5ccc(F)cc5)=CSC4=NC3=O)c2C)c1 | > 50 µM (inactive)
Cn1ccnc1CN1C[C@H]2CCN(c3ncccn3)C[C@H]2C1 | > 50 µM (inactive)
O=C(Nc1nnc2n1CCCS2)c1cccc(Cl)c1 | > 50 µM (inactive)
O=C(/C=C/C=C/C=C/C1CCCCC1)NC1=C[C@@](O)(/C=C/C=C/C=C/C(=O)NC2=C(O)CCC2=O)[C@@H]2O[C@@H]2C1=O | > 50 µM (inactive)
CC(Sc1n[nH]c2nc3ccccc3n12)C(=O)Nc1ccc2c(c1)OCCO2 (centres undefined) | > 50 µM (inactive)
COc1ccc(C2SCC(=O)Nc3c2c(=O)[nH]n3C2CCCCCC2)cc1 (centres undefined) | 23.8 µM

Compound | IC50
CCc1nc(-c2cc(C(=O)N3CCOCC3)c3ccccn23)cs1 | > 50 µM (inactive)
COc1ccccc1CNC(=O)CCCn1c(=O)c2ccccc2n(CC(=O)N2CCN(c3ccccc3)CC2)c1=O | 34.8 µM
COc1cc(C(=O)OCc2csc(-c3ccccc3)n2)ccc1OCC(=O)Nc1ccc(F)cc1 | > 50 µM (inactive)
O=C(Nc1cc(F)ccc1F)c1ccn(COc2ccc(F)c(Cl)c2)n1 | 22 µM
O=C(Cn1c(=O)n(Cc2ccco2)c(=O)c2ccc(C(=O)NC3CCCC3)cc21)NCc1ccco1 | > 50 µM (inactive)
Cc1cc(C)c2cc3c(nc2c1)OC(=O)N(Cc1ccco1)C3 | 23.2 µM
Cc1ccc(C)c(CSC2=NCCN2C(=O)c2ccco2)c1 | > 50 µM (inactive)
CC(=O)c1cccc(NC(=O)c2ccc(-c3csc(C)n3)cc2)c1 | > 50 µM (inactive)
Cc1ccc2c(c1)N(Cc1nc(-c3ccc(F)cc3)no1)C(=O)CO2 | > 50 µM (inactive)
O=C(CCn1c(=O)c2ccccc2n(Cc2cc(=O)n3ccccc3n2)c1=O)NCCc1ccc(Cl)cc1 | 28.5 µM
Nc1c(C(=O)Nc2ccc3c(c2)OCO3)sc2nc(-c3cccnc3)ccc12 | 0.545 µM
CCCc1c(C(=O)O)c(O[C@H]2O[C@H](C)[C@@H](OC)[C@H](OC)[C@@H]2OC)cc2cc3c(c(O)c12)C(=O)c1c(O)cc(O[C@@H]2O[C@@H](C)[C@H](O[C@H]4O[C@H](C)[C@@H](OC)[C@H](OC)[C@@H]4O)[C@@H](OC)[C@H]2O)cc1C3=O | > 50 µM (inactive)
CC1=C(c2ccc(F)cc2)S(=O)(=O)N=C1Nc1ccc(Cl)cc1 | 32.3 µM
Cc1cccc(C(=O)Nc2ccc3c(c2)nc(CSc2nccc(C)n2)n3C)c1 | > 50 µM (inactive)
Cc1ccc(-c2nc(Cn3nnc(-c4nc(-c5ccccn5)no4)c3C)c(C)o2)cc1 | > 50 µM (inactive)
COc1cc(NC(=O)Cn2nc(-c3ccc(F)cc3)ccc2=O)ccc1-n1cnnn1 | 1.74 µM
Cc1cc(C)n(-c2ccc(C(=O)NCc3ccc(F)cc3)cn2)n1 | 37.4 µM
COc1cc2c(cc1NC(=O)c1ccc(-n3cnnn3)cc1)oc1ccccc12 | 0.221 µM
CC(=O)O[C@H]1[C@]2(O)C[C@]34SS[C@](CO)(C(=O)N3[C@@H]2C[C@@]12O[C@@H](C)C(C)(C)C2=O)N(C)C4=O | 2.25 µM
COc1ccc(-c2cc3c(=O)n(CC(=O)Nc4ccccc4F)ccn3n2)cc1OC | 11.8 µM
CNC(=O)CC1NC(=O)c2csc(n2)-c2ccc(-c3nc(C4=NC(C(=O)N5CCCC5C(N)=O)CO4)cs3)nc2-c2csc(n2)-c2csc(n2)C(C(O)c2ccccc2)NC(=O)CNC(=O)c2nc(sc2COC)C(C(C)C)NC(=O)c2nc1sc2C (centres undefined) | > 50 µM (inactive)
CCCCNC(=O)C1Sc2nnc(-c3ccccc3)n2NC1c1ccccc1 (centres undefined) | 21.8 µM
